For 23 molecules, IC50 and EC50 results are on record in US20150336889A1, “INDOLE DERIVATIVES, PHARMACEUTICAL COMPOSITIONS CONTAINING SUCH INDOLES AND THEIR USE AS DNA METHYLATION MODULATORS” (IKERCHEM, S.L., priority 2012, published 2015).

The structures appear in SMILES notation. Counter-ions that a name gives are not always drawn.

In one assay the target is T1, Human DNMT1 (Homo sapiens, UniProt P26358).
T1 construct: a-a 2-1632, with N-terminal GST tag; GST (N)
As to the kind of experiment: DNMT1 enzymatic activity inhibition, radioisotope-based 3H-SAM filter binding assay. The class given is biochemical. Particulars: 1 μM SAM, 25 nM DNMT1, 0.005 mg/ml Poly(dI-dC), 30° C. 1 hour, 10-dose. How it is done: The inhibition of the enzymatic activity of DNMT1 was tested using low volume radioisotope-based assay which uses tritium-labeled AdoMet (^3H-SAM) as a methyl donor. Inhibitors diluted in DMSO were added by using acoustic technology (Echo550, Labcyte Inc. Sunnyvale, Calif.) into enzyme/substrate mixture in nano-liter range. The reaction was initiated by the addition of ^3H-SAM, and incubated at 30° C. for 1 hour. Total final methylations on the substrate poly(dI-dC) were detected by a filter binding approach. Data analysis was performed using GraphPad Prism software (La Jolla, Calif.) for IC50 curve fits.

The next assay deals with RPMI-8226. As to the kind of experiment: Cancer cell growth inhibition, RPMI-8226. The class given is cell-based. The settings on record: Homo sapiens; Multiple Myelome, RPMI-8226, cell viability, 72 h. The procedure: (§1) Cell culture-based assays were used to evaluate the ability of compounds of the invention to inhibit cancer cell growth inhibition.
(§2) Cells were obtained from the American Type Culture Collection (ATCC) and European Collection of Cell Cultures (ECACC).
(§3) Cells were thawed in their appropriate media plus supplements (see table below). Cells were passaged at confluence by washing once in HBSS cation-free followed by a 3 minutes incubation with trypsin ([0.5 μg/ml]/EDTA [0.2 μg/ml]) (Gibco-BRL, 15400054) solution in HBSS at 37° C. (except non-adherent cell lines), and transferred to their appropriate media plus supplements. Prior to seeding at defined cell concentration, cells were recovered in medium, centrifuged and taken up in medium, and counted.
(§4) Cells were plated at 3000/5000/10000 cells/well in 100 μl media in tissue culture 96 well plates (Cultek). After 24 h, media was supplemented by 100 μl/well of diluted IPDNs at 100 μM.
(§5) The Hexosaminidase assay was used for the adherent cell lines, whereas the AlamarBlue® assay was used for the non-adherent cell lines.
(§6) Dose-response curves were generated by serial dilutions (1:1) of the compounds. […] Reagent blanks, containing media plus colorimetric reagent without cells were run on each plate. Blank values were subtracted from test values and were routinely 5-10% of uninhibited control values. Plates were incubated 72 h, and living cell number was determined by AlamarBlue® and Hexosaminidase test. The advantages of using those assays are that both can be done in the same microwell plate. AlamarBlue® assay: plates were incubated 72 h and living cell number was determined by AlamarBlue (Biosource DAL1100). After 4 h incubation at 37° C., relative fluorescent intensity, which correlates with the number of living cells, was read in a Cytofluor plate reader (Millipore) at 535/590 nm (Excitation/emission). The hexosaminidase activity was measured according to the following protocol: the media was removed and cells were washed once with PBS.
(§7) Data analysis was done by calculating the percentage of cell viability normalized in front of negative control values, which were considered as a 100%. The curve was adjusted using a sigmoidal dose-response (variable slope) equation and EC50 values were obtained from the equation
(§8) where, X is the logarithm of concentration. Y is the response. Bottom is the Y value at the bottom plateau Top is the Y value at the top plateau LogEC50 is the X value when the response is halfway between Bottom and Top. With different kinds of variables, this variable is sometimes called ED50 (effective dose, 50%), or IC50 (inhibitory concentration, 50%, used when the curve goes downhill).

A further assay has as its system NCI-H1975. As to the kind of experiment: Cancer cell growth inhibition, NCI-H1975. The settings on record: Homo sapiens; Lung, NCI-H1975, cell viability, 72 h. The class given is cell-based. The procedure:
as §1, §2, §3, §4, §5, §6, §7, §8

Another assay concerns MiaPaCa-2. Nature of the assay: Cancer cell growth inhibition, MiaPaCa-2. The settings on record: Homo sapiens, MIA PaCa-2; Pancreatic, MiaPaCa-2, cell viability, 72 h. The class given is cell-based. The procedure:
as §1, §2, §3, §4, §5, §6, §7, §8

A further assay has as its system T47D. Nature of the assay: Cancer cell growth inhibition, T47D. The class given is cell-based. Particulars: Homo sapiens, Breast, cell viability, 72 h. The procedure:
as §1, §2, §3, §4, §5, §6, §7, §8

A further assay has as its system Jurkat. As to the kind of experiment: Cancer cell growth inhibition, Jurkat. Type of assay: cell-based. The settings on record: Homo sapiens, Hematologic, cell viability, 72 h. How it is done: as §1, §2, §3, §4, §5, §6, §7, §8
Another assay relates to HCT-116. As to the kind of experiment: Cancer cell growth inhibition, HCT-116. The settings on record: Homo sapiens; Colorectal, HCT-116, cell viability, 72 h. The class given is cell-based. How it is done:
as §1, §2, §3, §4, §5, §6, §7, §8

Another assay deals with Daoy. As to the kind of experiment: Cancer cell growth inhibition, Daoy. The class given is cell-based. The settings on record: Homo sapiens, Brain, cell viability, 72 h. The procedure:
as §1, §2, §3, §4, §5, §6, §7, §8

Another assay concerns NCI-H358. Nature of the assay: Cancer cell growth inhibition, NCI-H358. Type of assay: cell-based. Particulars: Homo sapiens; Lung, NCI-H358, cell viability, 72 h. How it is done: as §1, §2, §3, §4, §5, §6, §7, §8
In the next assay the test system is SK-HEP-1. As to the kind of experiment: Cancer cell growth inhibition, SK-HEP-1. Type of assay: cell-based. The settings on record: Homo sapiens, SK-HEP1; Liver, SK-HEP-1, cell viability, 72 h. How it is done:
as §1, §2, §3, §4, §5
as §6, with “PBS. […]” for “PBS.”

A further assay deals with CCFR-CEM. As to the kind of experiment: Cancer cell growth inhibition, CCFR-CEM. Type of assay: cell-based. Particulars: Hematologic, cell viability, 72 h. How it is done:
as §1, §2, §3, §4, §5, §6, §7, §8

Another assay concerns MCF-7. As to the kind of experiment: Cancer cell growth inhibition, MCF-7. Type of assay: cell-based. Particulars: Homo sapiens, MCF7; Breast, MCF-7, cell viability, 72 h. The procedure:
as §1, §2, §3, §4, §5, §6, §7, §8

In a further assay the test system is A-431. Nature of the assay: Cancer cell growth inhibition, A-431. The class given is cell-based. The settings on record: Homo sapiens; Epidermoid, A-431, cell viability, 72 h. The procedure: as §1, §2, §3, §4, §5, §6, §7, §8
The subject of another assay is U-87MG. Nature of the assay: Cancer cell growth inhibition, U-87MG. The settings on record: Homo sapiens, Brain, cell viability, 72 h. The class given is cell-based. How it is done: as §1, §2, §3, §4, §5, §6, §7, §8
A further assay has as its system MDA-MB-435. Nature of the assay: Cancer cell growth inhibition, MDA-MB-435. The settings on record: Homo sapiens; Melanoma, MDA-MB-435, cell viability, 72 h. Type of assay: cell-based. How it is done: as §1, §2, §3, §4, §5, §6, §7, §8

T1 sequence (P26358 2-1632 isoform P26358-2): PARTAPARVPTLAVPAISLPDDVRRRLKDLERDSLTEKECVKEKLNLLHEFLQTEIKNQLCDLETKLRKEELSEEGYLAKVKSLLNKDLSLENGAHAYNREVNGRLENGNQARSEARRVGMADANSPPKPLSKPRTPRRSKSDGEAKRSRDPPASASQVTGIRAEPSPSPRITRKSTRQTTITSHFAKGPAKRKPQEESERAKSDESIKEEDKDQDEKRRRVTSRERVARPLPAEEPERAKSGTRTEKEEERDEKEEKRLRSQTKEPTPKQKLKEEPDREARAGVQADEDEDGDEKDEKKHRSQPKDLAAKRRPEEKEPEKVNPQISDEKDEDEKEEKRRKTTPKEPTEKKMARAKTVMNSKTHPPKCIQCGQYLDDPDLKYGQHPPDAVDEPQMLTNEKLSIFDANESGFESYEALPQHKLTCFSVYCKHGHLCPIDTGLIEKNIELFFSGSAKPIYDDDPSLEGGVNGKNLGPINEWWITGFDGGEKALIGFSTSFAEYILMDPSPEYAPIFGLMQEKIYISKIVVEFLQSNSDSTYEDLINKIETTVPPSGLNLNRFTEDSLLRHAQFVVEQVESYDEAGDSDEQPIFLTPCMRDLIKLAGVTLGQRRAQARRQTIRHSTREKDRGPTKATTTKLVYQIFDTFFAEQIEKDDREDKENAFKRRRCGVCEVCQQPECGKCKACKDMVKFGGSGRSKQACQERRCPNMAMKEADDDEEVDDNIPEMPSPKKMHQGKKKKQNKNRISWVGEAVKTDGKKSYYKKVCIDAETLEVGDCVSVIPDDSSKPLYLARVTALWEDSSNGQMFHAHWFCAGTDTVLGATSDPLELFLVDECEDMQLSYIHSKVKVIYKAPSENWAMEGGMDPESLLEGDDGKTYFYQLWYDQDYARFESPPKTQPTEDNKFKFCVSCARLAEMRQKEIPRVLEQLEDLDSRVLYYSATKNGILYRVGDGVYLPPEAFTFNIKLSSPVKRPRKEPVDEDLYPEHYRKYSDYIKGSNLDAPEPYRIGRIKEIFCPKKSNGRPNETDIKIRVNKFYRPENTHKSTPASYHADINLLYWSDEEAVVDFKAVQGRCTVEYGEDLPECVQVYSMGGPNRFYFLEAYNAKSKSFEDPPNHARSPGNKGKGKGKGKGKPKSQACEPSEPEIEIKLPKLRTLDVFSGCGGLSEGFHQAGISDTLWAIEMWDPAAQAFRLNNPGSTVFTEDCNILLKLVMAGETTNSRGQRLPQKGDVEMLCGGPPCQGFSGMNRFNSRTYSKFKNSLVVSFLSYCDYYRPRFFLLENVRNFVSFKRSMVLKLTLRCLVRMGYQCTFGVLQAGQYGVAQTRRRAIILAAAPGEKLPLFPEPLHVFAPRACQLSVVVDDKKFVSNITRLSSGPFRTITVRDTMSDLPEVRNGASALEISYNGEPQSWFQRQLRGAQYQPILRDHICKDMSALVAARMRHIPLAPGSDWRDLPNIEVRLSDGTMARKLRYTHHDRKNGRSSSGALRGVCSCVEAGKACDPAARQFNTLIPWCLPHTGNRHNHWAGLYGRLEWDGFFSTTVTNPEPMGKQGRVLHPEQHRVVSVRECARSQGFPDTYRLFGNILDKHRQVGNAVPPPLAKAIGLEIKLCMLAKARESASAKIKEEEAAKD

As usually defined, the IC50 is the concentration needed to halve the response being measured. As for `COc1cc(OC)cc(N(CC(=O)c2ccc(O)c(O)c2O)CC(=O)c2ccc(O)c(O)c2O)c1` [Example 24, 2,2′-[(3,5-dimethoxyphenyl)azanediyl]-bis[1-(2,3,4-trihydroxyphenyl)ethanone]], on Human DNMT1, the IC50 was determined as 15.6 µM. Same read-out and setting: the figure for `O=C(Cn1cc(-c2ccc(O)cc2)c2cc(F)ccc21)c1ccc(O)cc1` [Example 19, 2-[5-fluoro-3-(4-hydroxyphenyl)-1H-indol-1-yl]-1-(4-hydroxyphenyl) ethanone] is 59.1 µM.

As usually defined, the EC50 is the midpoint of the concentration-response curve. Take `COc1cc(OC)c2c(-c3ccc(OC(C)=O)c(OC(C)=O)c3)cn(CC(=O)c3ccc(OC(C)=O)c(OC(C)=O)c3)c2c1` [Example 30, 4-{1-[2-(3,4-diacetoxyphenyl)-2-oxoethyl]-4,6-dimethoxy-1H-indol-3-yl}-1,2-phenylene diacetate]: the EC50 in the assay on RPMI-8226 came out at 36 µM; in the assay with NCI-H1975 it was 47 µM; in the assay with MiaPaCa-2 it was 55 µM; in the assay on T47D, 47 µM; in the assay with Jurkat, 49 µM; in the assay with HCT-116, 64 µM. Moreover, the EC50 came out at 50 µM in the assay with Daoy; 53 µM in the assay with NCI-H358; 39 µM in the assay with SK-HEP-1; 40 µM in the assay on CCFR-CEM; 88 µM in the assay with MCF-7; 88 µM in the assay on A-431. The figures for the EC50 in the assay on U-87MG and with MDA-MB-435 were 75 µM and 23 µM, respectively. The molecule `O=C(Cn1cc(-c2ccc(O)cc2)c2ccccc21)c1ccc(O)cc1` [Example 20, 1-(4-hydroxyphenyl)-2-[3-(4-hydroxyphenyl)-1H-indol-1-yl]ethanone] displayed a half-inhibitory concentration (IC50) on Human DNMT1 of 241 µM. Same read-out and setting: then `COc1cc2c(cc1O)c(-c1ccc(O)cc1)cn2CC(=O)c1ccc(O)cc1` [Example 15, 2-[5-hydroxy-3-(4-hydroxyphenyl)-6-methoxy-1H-indol-1-yl]-1-(4-hydroxyphenyl)ethanone], with 576 µM; and `COc1ccc2c(-c3ccccc3O)cn(CC(=O)c3ccccc3O)c2c1` [Example 3, 1-(2-hydroxyphenyl)-2-[3-(2-hydroxyphenyl)-6-methoxy-1H-indol-1-yl]ethanone], with 56.7 µM.

On to `COc1cc(OC)c2c(-c3ccccc3O)cn(CC(=O)c3ccccc3O)c2c1` [Example 7, 1-(2-hydroxyphenyl)-2-[3-(2-hydroxyphenyl)-4,6-dimethoxy-1H-indol-1-yl]ethanone], for which the IC50 on Human DNMT1 stood at 32.9 µM. On the same count and under the same terms, then `COc1cc2c(-c3ccc(O)cc3)cn(CC(=O)c3ccc(O)cc3)c2cc1OC` [Example 14, 1-(4-hydroxyphenyl)-2-[3-(4-hydroxyphenyl)-5,6-dimethoxy-1H-indol-1-yl]ethanone], with 43.3 µM. The molecule `COc1cccc(N(CC(=O)c2ccc(O)c(O)c2O)CC(=O)c2ccc(O)c(O)c2O)c1` [Example 23, 2,2′-[(3-methoxyphenyl)azanediyl]-bis[1-(2,3,4-trihydroxyphenyl)ethanone]] came in with an IC50 at Human DNMT1 of 27.4 µM. On to `COc1ccc2c(-c3cccc(O)c3)cn(CC(=O)c3cccc(O)c3)c2c1` [Example 2, 1-(3-hydroxyphenyl)-2-[3-(3-hydroxyphenyl)-6-methoxy-1H-indol-1-yl]ethanone], for which the IC50 at Human DNMT1 stood at 30.6 µM. The same measure, in the same setting: the figure for `COc1cc(OC)c2c(-c3ccc(O)cc3)cn(C/C(=N\O)c3ccc(O)cc3)c2c1` [Example 22, (Z)-1-(4-hydroxyphenyl)-2-[3-(4-hydroxyphenyl)-4,6-dimethoxy-1H-indol-1-yl]ethanone oxime] is 22.5 µM.

On to `O=C(Cn1cc(-c2ccc(O)cc2)c2ccc(O)cc21)c1ccc(O)cc1` [Example 17, 2-[6-hydroxy-3-(4-hydroxyphenyl)-1H-indol-1-yl]-1-(4-hydroxyphenyl) ethanone], for which the IC50 on Human DNMT1 stood at 50.9 µM. Same read-out and setting: the figure for `COc1cc(OC)c2c(-c3cc(O)cc(O)c3)cn(CC(=O)c3cc(O)cc(O)c3)c2c1` [Example 10, 1-(3,5-dihydroxyphenyl)-2-[3-(3,5-dihydroxyphenyl)-4,6-dimethoxy-1H-indol-1-yl]ethanone] is 44.6 µM. On the same count and under the same terms, then `COc1ccc2c(-c3ccc(O)cc3)cn(CC(=O)c3ccc(O)cc3)c2c1` [Example 1, 1-(4-hydroxyphenyl)-2-[3-(4-hydroxyphenyl)-6-methoxy-1H-indol-1-yl]ethanone], with 73.1 µM; and `COc1ccc(OC)c2c1c(-c1ccc(O)cc1)cn2CC(=O)c1ccc(O)cc1` [Example 13, 1-(4-hydroxyphenyl)-2-[3-(4-hydroxyphenyl)-4,7-dimethoxy-1H-indol-1-yl]ethanone], with 98.4 µM; and `COc1cc(OC)c2c(-c3ccc(F)cc3)cn(CC(=O)c3ccc(F)cc3)c2c1` [Example 12, 1-(4-fluorophenyl)-2-[3-(4-fluorophenyl)-4,6-dimethoxy-1H-indol-1-yl]ethanone], with 104 µM. `COc1cc(OC)c2c(-c3ccc(O)cc3)cn(CC(=O)c3ccc(O)cc3)c2c1` [Example 27, calcium phenoxide salt of 1-(4-hydroxyphenyl)-2-[3-(4-hydroxyphenyl)-4,6-dimethoxy-1H-indol-1-yl]ethanone]: at Human DNMT1, the IC50 is 46.8 µM. Still for that read-out and setting: then `COc1ccc2c(-c3ccc(O)cc3)cn(CC(=O)c3ccc(O)cc3)c2c1` [Example 25, potassium phenoxide salt of 1-(4-hydroxyphenyl)-2-[3-(4-hydroxyphenyl)-6-methoxy-1H-indol-1-yl]ethanone], with 19.5 µM; and `COc1cc(OC)c2c(-c3ccc(O)cc3)cn(CC(=O)c3ccc(O)cc3)c2c1` [Example 26, potassium phenoxide salt of 1-(4-hydroxyphenyl)-2-[3-(4-hydroxyphenyl)-4,6-dimethoxy-1H-indol-1-yl]ethanone], with 40.4 µM; and `COc1ccc2c(-c3ccc(O)c(O)c3O)cn(CC(=O)c3ccc(O)c(O)c3O)c2c1` [Example 5, 2-[6-methoxy-3-(2,3,4-trihydroxyphenyl)-1H-indol-1-yl]-1-(2,3,4-trihydroxyphenyl) ethanone], with 3.53 µM. Molecule `COc1cc(OC)c2c(-c3ccc(O)cc3O)cn(CC(=O)c3ccc(O)cc3O)c2c1` [Example 9, 1-(2,4-dihydroxyphenyl)-2-[3-(2,4-dihydroxyphenyl)-4,6-dimethoxy-1H-indol-1-yl]ethanone] displayed an IC50 at Human DNMT1 of 181 µM. On the same count and under the same terms, the figure for `COc1cc(OC)c2c(-c3ccc(O)cc3)cn(C/C(=N/O)c3ccc(O)cc3)c2c1` [Example 21, (E)-1-(4-Hydroxyphenyl)-2-[3-(4-hydroxyphenyl)-4,6-dimethoxy-1H-indol-1-yl]ethanone oxime] is 104 µM. At Human DNMT1, `O=C(Cn1cc(-c2ccc(O)cc2)c2cc(O)ccc21)c1ccc(O)cc1` [Example 18, 2-[5-hydroxy-3-(4-hydroxyphenyl)-1H-indol-1-yl]-1-(4-hydroxyphenyl) ethanone] had an IC50 of 32.9 µM.
